The target in one test is recombinant Human Phosphodiesterase B2 (PDE4B2) (Homo sapiens, UniProt Q07343). As to the kind of experiment: Human Phosphodiesterase B2 Radiometric Assay (yttrium silicate SPA beads, [3H]cyclic AMP). The test is classed as biochemical. The conditions noted are these: at 0.32 uM. The protocol: Human Phosphodiesterase B2 Radiometric Assay
Sequence of recombinant Human Phosphodiesterase B2 (PDE4B2) (Q07343 1-564 isoform Q07343-2): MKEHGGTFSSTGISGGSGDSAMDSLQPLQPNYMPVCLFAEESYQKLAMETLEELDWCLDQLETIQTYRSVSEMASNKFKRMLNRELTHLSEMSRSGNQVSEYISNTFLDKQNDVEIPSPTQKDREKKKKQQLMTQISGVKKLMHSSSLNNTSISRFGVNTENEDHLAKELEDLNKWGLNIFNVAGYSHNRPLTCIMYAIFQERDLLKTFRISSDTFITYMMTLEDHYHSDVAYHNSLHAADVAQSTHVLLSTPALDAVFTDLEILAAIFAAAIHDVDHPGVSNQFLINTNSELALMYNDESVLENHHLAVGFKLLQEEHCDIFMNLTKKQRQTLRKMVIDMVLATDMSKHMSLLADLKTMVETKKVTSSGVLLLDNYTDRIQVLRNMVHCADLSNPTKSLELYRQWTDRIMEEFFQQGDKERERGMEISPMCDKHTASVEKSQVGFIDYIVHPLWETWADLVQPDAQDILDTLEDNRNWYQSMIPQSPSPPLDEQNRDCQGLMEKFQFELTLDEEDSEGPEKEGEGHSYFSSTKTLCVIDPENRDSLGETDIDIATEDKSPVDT
The assay uses recombinant Human Phosphodiesterase B2 (PDE4B2) produced in house (PrAZL0163), stored at −20° C. This assay is based on the observation that 5′AMP, the product of the reaction catalysed by PDE4, binds preferentially to yttrium silicate SPA beads (Amersham Biosciences, UK) compared to the substrate, cAMP. Compounds at the appropriate concentration were preincubated at 30 C for 30 min with an assay buffer containing 50 mM HEPES (pH 7.5), 8.3 mM MgCl2, 1.7 mM EGTA, 0.01% (w/v) Brij° 35 and 0.1 mg/mL recombinant PDE4B2. The reaction was started by the addition of [3H]cyclic AMP to give a final concentration of 8 nM, and was stopped 20 minutes after the addition of the substrate by the addition of yttrium silicate SPA beads containing 18 mM Zn SO4. Bound [3H]cyclic AMP was measured using a Topcount NXT (Packard Bioscience, UK). pIC50 values (presented in Table 15) were determined using Xlfit3 curve fitting, using model 205.
For the compound `CN1CCC(n2c(=O)n([C@H]3CC[C@@H](NC(=O)c4cn5cc(F)ccc5n4)CC3)c(=O)c3cc(F)cnc32)CC1` [Example 40, 6-fluoro-N-{cis-4-[6-fluoro-1-(1-methylpiperidin-4-yl)-2,4-dioxo-1,4-dihydropyrido[2,3-d]pyrimidin-3(2H)-yl]cyclohexyl}imidazo[1,2-c]pyridine-2-carboxamide], the “PDE4B2 (percent at a single concentration, printed in the pIC50 column)” value stood at 50% at 0.32 uM.

Still in this test, the particulars now being: recombinant human PDE4B2, radiometric SPA assay, 8 nM [3H]cyclic AMP; read-out: PDE4B2 pIC50 (converted).
As to `C[C@@H]1COCCN1Cc1cc(O)ccc1-c1cccc(-n2c(=O)n([C@H]3CC[C@@H](NCc4cn5cc(F)ccc5n4)CC3)c(=O)c3cc(F)cnc32)c1` [Example 316, 6-fluoro-3-(cis-4-{[(6-fluoroimidazo[1,2-a]pyridin-2-yl)methyl]amino}cyclohexyl)-1-(4′-hydroxy-2′-{[(3R)-3-methylmorpholin-4-yl]methyl}biphenyl-3-yl)pyrido[2,3-d]pyrimidine-2,4(1H,3H)-dione], the IC50 was 0.0316 nM.
Same read-out and setting: the result for `CN1CCCN(Cc2ccc(-c3cccc(-n4c(=O)n([C@H]5CC[C@@H](NC(=O)c6nc7ccccc7[nH]c6=O)CC5)c(=O)c5cc(F)cnc54)c3)cc2)CC1` [Example 360, N-{cis-4-[6-fluoro-1-{4′-[(4-methyl-1,4-diazepan-1-yl)methyl]biphenyl-3-yl}-2,4-dioxo-1,4-dihydropyrido[2,3-d]pyrimidin-3(2H)-yl]cyclohexyl}-3-oxo-3,4-dihydroquinoxaline-2-carboxamide] reads 0.0398 nM.
For the compound `CSc1cccc(-c2cccc(-n3c(=O)n([C@H]4CC[C@@H](NC(=O)c5cn6cc(F)ccc6n5)CC4)c(=O)c4cc(F)cnc43)c2)c1` [Example 15, 6-fluoro-N-{cis-4-[6-fluoro-1-[3′-(methylthio)biphenyl-3-yl]-2,4-dioxo-1,4-dihydropyrido[2,3-d]pyrimidin-3(2H)-yl]cyclohexyl}imidazo[1,2-a]pyridine-2-carboxamide.], the IC50 is 0.0126 nM.
On to `O=C(N[C@H]1CC[C@@H](n2c(=O)c3cc(F)cnc3n(-c3cccc(-c4ccc(CN5CCCOCC5)cc4)c3)c2=O)CC1)C1CC1` [Example 306, N-{cis-4-[6-fluoro-1-[4′-(1,4-oxazepan-4-ylmethyl)biphenyl-3-yl]-2,4-dioxo-1,4-dihydropyrido[2,3-d]pyrimidin-3(2H)-yl]cyclohexyl} cyclopropanecarboxamide], for which the IC50 was 0.251 nM.
Regarding `CC(C)[C@@H](N)C(=O)N[C@H]1CC[C@@H](n2c(=O)c3cc(F)cnc3n(-c3cccc(-c4ccc(CN5CCCN(C)CC5)cc4)c3)c2=O)CC1` [Example 313, N-{cis-4-[6-fluoro-1-{4′-[(4-methyl-1,4-diazepan-1-yl)methyl]biphenyl-3-yl}-2,4-dioxo-1,4-dihydropyrido[2,3-d]pyrimidin-3(2H)-yl]cyclohexyl}-D-valinamide], the IC50 was 0.398 nM.
On to `CC(C)N1CCN(Cc2ccc(-c3cccc(-n4c(=O)n([C@H]5CC[C@@H](NC(=O)C6CC6)CC5)c(=O)c5cc(F)cnc54)c3)cc2)CC1` [Example 233, N-{cis-4-[6-fluoro-1-{4′-[(4-isopropylpiperazin-1-yl)methyl]biphenyl-3-yl}-2,4-dioxo-1,4-di-hydropyrido[2,3-d]pyrimidin-3(2H)-yl]cyclohexyl}cyclo-propanecarboxamide], for which the IC50 was 0.0501 nM.
On the same count and under the same terms, the result for `CC(=O)N[C@H]1CC[C@@H](n2c(=O)c3cc(F)cnc3n(-c3cccc(-c4ccc(CN(C)C)cc4)c3)c2=O)CC1` [Example 89, N-{cis-4-[1-{4′-[(dimethylamino)methyl]biphenyl-3-yl}-6-fluoro-2,4-dioxo-1,4-dihydropyrido[2,3-d]pyrimidin-3(2H)-yl]cyclohexyl}acetamide] reads 2 nM; that for `Cc1ccc(-c2cccc(-n3c(=O)n([C@H]4CC[C@@H](N)CC4)c(=O)c4cc(F)cnc43)c2)cc1` [Example 47, 3-(cis-4-aminocyclohexyl)-6-fluoro-1-(4′-methylbiphenyl-3-yl)pyrido[2,3-d]pyrimidine-2,4(1H,3H)-dione], 2 nM; that for `O=c1c2cc(F)cnc2n(-c2cccc(-c3cc(O)ccc3CN3CCOCC3)c2)c(=O)n1[C@H]1CC[C@@H](NCc2cn3cc(F)ccc3n2)CC1` [Example 337, 6-fluoro-3-(cis-4-{[(6-fluoroimidazo[1,2-a]pyridin-2-yl)methyl]amino}cyclohexyl)-1-[5′-hydroxy-2′-(morpholin-4-ylmethyl)biphenyl-3-yl]pyrido[2,3-d]pyrimidine-2,4(1H,3H)-dione], 0.1 nM.
Same read-out and setting: the result for `CSc1ccccc1-c1cccc(-n2c(=O)n([C@H]3CC[C@@H](NC(=O)c4cn5cc(F)ccc5n4)CC3)c(=O)c3cc(F)cnc32)c1` [Example 17, 6-fluoro-N-{cis-4-[6-fluoro-1-[2′-(methylthio)biphenyl-3-yl]-2,4-dioxo-1,4-dihydropyrido[2,3-d]pyrimidin-3(2H)-yl]cyclohexyl}imidazo[1,2-a]pyridine-2-carboxamide.] reads 0.00794 nM.
The same measure, in the same setting: as for `CNCCNCc1ccc(-c2cccc(-n3c(=O)n([C@H]4CC[C@@H](NC(=O)c5cn6cc(F)ccc6n5)CC4)c(=O)c4cc(F)cnc43)c2)cc1` [Example 64, 6-fluoro-N-{cis-4-[6-fluoro-1-[4′-({[2-(methylamino)ethyl]amino}methyl)biphenyl-3-yl]-2,4-dioxo-1,4-dihydropyrido[2,3-a]pyrimidin-3(2H)-yl]cyclohexyl}imidazo[1,2-a]pyridine-2-carboxamide], the figure is 0.0794 nM; as for `O=C(N[C@H]1CC[C@@H](n2c(=O)c3cc(F)cnc3n(-c3cccc(-c4ccc(CCCN5CCNCC5)cc4)c3)c2=O)CC1)c1cn2cc(F)ccc2n1` [Example 97, 6-fluoro-N-{cis-4-[6-fluoro-2,4-dioxo-1-[4′-(3-piperazin-1-ylpropyl)biphenyl-3-yl]-1,4-dihydropyrido[2,3-d]pyrimidin-3(2H)-yl]cyclohexyl}imidazo[1,2-a]pyridine-2-carboxamide], 0.00631 nM.
As to `CCCCc1ccc(C(=O)N[C@H]2CC[C@@H](n3c(=O)c4cc(F)cnc4n(-c4cccc(-c5ccc(CN6C[C@@H](C)N[C@@H](C)C6)cc5)c4)c3=O)CC2)nc1` [Example 302, 5-butyl-N-{cis-4-[1-(4′-{[(3R,5S)-3,5-dimethylpiperazin-1-yl]methyl}biphenyl-3-yl)-6-fluoro-2,4-dioxo-1,4-dihydropyrido[2,3-d]pyrimidin-3(2H)-yl]cyclohexyl} pyridine-2-carboxamide], the IC50 is 0.1 nM.
On to `Cc1cccc(CN[C@H]2CC[C@@H](n3c(=O)c4cc(F)cnc4n(-c4cccc(-c5ccc(O)cc5CN5CCOCC5)c4)c3=O)CC2)n1` [Example 284, 6-fluoro-1-{4′-hydroxy-2′-(morpholin-4-ylmethyl)biphenyl-3-yl]-3-(cis-4-{[(6-methylpyridin-2-yl)methyl]amino}cyclohexyl)pyrido [2,3-d]pyrimidine-2,4(1H,3H)-dione], for which the IC50 is 0.0794 nM.
Same read-out and setting: the result for `O=C(N[C@H]1CC[C@@H](n2c(=O)c3cc(F)cnc3n(-c3cccc(-c4ccccc4CN4CCOCC4)c3)c2=O)CC1)C1(O)CC1` [Example 48, N-{cis-4-[6-fluoro-1-[2′-(morpholin-4-ylmethyl)biphenyl-3-yl]-2,4-dioxo-1,4-dihydropyrido[2,3-d]pyrimidin-3(2H)-yl]cyclohexyl}-1-hydroxycyclopropanecarboxamide] reads 0.398 nM; that for `C[C@@H]1CN(Cc2ccc(-c3cccc(-n4c(=O)n([C@H]5CC[C@@H](NC(=O)c6cn7c(n6)CCCC7)CC5)c(=O)c5cc(F)cnc54)c3)cc2)C[C@H](C)O1` [Example 138, N-{cis-4-[1-(4′-{[(2R,6S)-2,6-dimethylmorpholin-4-yl]methyl}biphenyl-3-yl)-6-fluoro-2,4-dioxo-1,4-dihydxopyrido[2,3-d]pyrimidin-3(2H)-yl]cyclohexyl}-5,6,7,8-tetrahydroimidazo[1,2-a]pyridine-2-carboxamide], 0.00316 nM; that for `Cc1cc(C(=O)N[C@H]2CC[C@@H](n3c(=O)c4cc(F)cnc4n(-c4cccc(-c5ccc(CN6CCN(C(C)C)CC6)cc5)c4)c3=O)CC2)no1` [Example 243, N-{cis-4-[6-fluoro-1-{4′-[(4-isopropylpiperazin-1-yl)methyl]biphenyl-3-yl}-2,4-dioxo-1,4-di-hydropyrido[2,3-d]pyrimidin-3(2H)-yl]cyclohexyl}-5-methyl-isoxazole-3-carboxamide], 0.0398 nM.
Same read-out and setting: the result for `Cc1cc(C(=O)N[C@H]2CC[C@@H](n3c(=O)c4cc(F)cnc4n(-c4cccc(-c5ccc(CN6CCC(CO)CC6)cc5)c4)c3=O)CC2)nn1C` [Example 116, N-{cis-4-[6-fluoro-1-(4′-{[4-(hydroxymethyl)piperidin-1-yl]methyl}biphenyl-3-yl)-2,4-dioxo-1,4-dihydropyrido[2,3-d]pyrimidin-3(2H)-yl]cyclohexyl}-1,5-dimethyl-1H-pyrazole-3-carboxamide] reads 0.0501 nM.
On the same count and under the same terms, as for `O=c1c2cc(F)cnc2n(-c2cccc(-c3ccc(CN4CCNCC4)cc3)c2)c(=O)n1[C@H]1CC[C@@H](NCc2cn3cc(F)ccc3n2)CC1` [Example 75, 6-fluoro-3-(cis-4-{[(6-fluoroimidazo[1,2-a]pyridin-2-yl)methyl]amino}cyclohexyl)-1-[4′-(piperazin-1-ylmethyl)biphenyl-3-yl]pyrido[2,3-d]pyrimidine-2,4(1H,3H)-dione], the figure is 0.316 nM.

The record behind these values is US20100204203A1, “Chemical Compounds 637: Pyridopyrimidinediones as PDE4 Inhibitors” (priority 2007, published 2010).
